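Exposure lasted 48 hours, with cells grown in 96-well plates and compounds tested at five concentrations. GI50 = concentration required for 50% inhibition of growth.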 Activity calls are given as the source filed them. Rule as the data show it: active = GI50 up to about 1.1 µM and inactive = higher.
How the values were obtained:
Assay in all cases: inhibition of tumour cell growth, NCI panel, 48 h
[1] = tested on: UO-31
[2] = tested on: UACC-62
[3] = tested on: MCF7
[4] = tested on: SF-539
[5] = tested on: HCT-15
[6] = tested on: U-251
[7] = tested on: SNB-75
[8] = tested on: 786-0
[9] = tested on: ACHN
[10] = tested on: SR
[11] = tested on: PC-3
[12] = tested on: LOX IMVI
[13] = tested on: A498
[14] = tested on: UACC-257
[15] = tested on: OVCAR-5
[16] = tested on: MDA-MB-435
[17] = tested on: HCT-116
[18] = tested on: HL-60
[19] = tested on: SK-OV-3
[20] = tested on: RXF 393

Compound | GI50 [1] | GI50 [2] | GI50 [3] | GI50 [4] | GI50 [5] [µM] | GI50 [6] | GI50 [7] | GI50 [8] | GI50 [9] | GI50 [10] | GI50 [11] | GI50 [12] | GI50 [13] | GI50 [14] | GI50 [15] | GI50 [16] | GI50 [17] | GI50 [18] | GI50 [19] | GI50 [20]
C=CCOc1ccc(C2c3c(n[nH]c3O)CC(C)(O)C2C(=O)OC)cc1OC (configuration not stated) | > 100 µM (inactive) | > 100 µM (inactive) | > 100 µM (inactive) | > 100 µM (inactive) | > 100 | > 100 µM (inactive) | > 100 µM (inactive) | > 100 µM (inactive) | > 100 µM (inactive) | > 100 µM (inactive) | > 100 µM (inactive) | > 100 µM (inactive) | > 100 µM (inactive) | > 100 µM (inactive) | > 100 µM (inactive) | > 100 µM (inactive) | > 100 µM (inactive) | > 100 µM (inactive) | – | –
O=C1OCc2c1cc1cc3c(cc1c2-c1ccc2c(c1)OCO2)OCO3.O=C1OCc2cc3cc4c(cc3c(-c3ccc5c(c3)OCO5)c21)OCO4 | 14 µM (inactive) | 8.55 µM (inactive) | 15.4 µM (inactive) | – | 6.18 | 13.2 µM (inactive) | 10 µM (inactive) | – | – | 5.7 µM (inactive) | 8.38 µM (inactive) | 14.2 µM (inactive) | 24.7 µM (inactive) | 25.5 µM (inactive) | 21 µM (inactive) | 1.87 µM (inactive) | 2.76 µM (inactive) | 34.8 µM (inactive) | 17.8 µM (inactive) | 5.73 µM (inactive)
N#Cc1c2c(c(Nc3ccc(F)cc3)n3c1nc1ccccc13)CCCC2 | > 38.9 µM (inactive) | > 100 µM (inactive) | > 32.5 µM (inactive) | > 55.5 µM (inactive) | > 100 | 43.8 µM (inactive) | 45.7 µM (inactive) | 56.2 µM (inactive) | 1.8 µM (inactive) | 74.3 µM (inactive) | 5.36 µM (inactive) | – | > 100 µM (inactive) | 27.2 µM (inactive) | > 100 µM (inactive) | > 24.9 µM (inactive) | 20 µM (inactive) | 9.93 µM (inactive) | 97.9 µM (inactive) | 24 µM (inactive)
Cc1ccc(/C=C/C(=O)c2cc(CN(C)C)c(O)c(CN(C)C)c2)cc1 | 15.7 µM (inactive) | – | 17.3 µM (inactive) | 16.6 µM (inactive) | 14.4 | 21.9 µM (inactive) | 24.4 µM (inactive) | 27.2 µM (inactive) | 12.1 µM (inactive) | 18.2 µM (inactive) | 13.5 µM (inactive) | 6.65 µM (inactive) | 25.2 µM (inactive) | 13.8 µM (inactive) | 66.8 µM (inactive) | 21.4 µM (inactive) | 15.5 µM (inactive) | 11.7 µM (inactive) | – | 18.7 µM (inactive)
O=C(COc1ccc(OCC(=O)NNC2=NC(c3cc(F)c(Cl)cc3Cl)CS2)c(Cl)c1)NNC1=NC(c2cc(F)c(Cl)cc2Cl)CS1 (configuration not stated) | > 100 µM (inactive) | 18.6 µM (inactive) | 14 µM (inactive) | 28.6 µM (inactive) | 16.7 | 14.4 µM (inactive) | – | 60.4 µM (inactive) | 38.5 µM (inactive) | 35.9 µM (inactive) | 22.1 µM (inactive) | 1.04 µM (active) | 23.7 µM (inactive) | 48 µM (inactive) | 36.7 µM (inactive) | 16.7 µM (inactive) | 31.5 µM (inactive) | 38.1 µM (inactive) | > 100 µM (inactive) | 19.8 µM (inactive)
COC1(OC)C2(Cl)C(Cl)=C(Cl)C1(Cl)C1COCC12 (configuration not stated) | > 100 µM (inactive) | > 100 µM (inactive) | > 100 µM (inactive) | > 100 µM (inactive) | > 100 | > 44.5 µM (inactive) | > 100 µM (inactive) | > 100 µM (inactive) | > 100 µM (inactive) | > 75.3 µM (inactive) | > 100 µM (inactive) | > 100 µM (inactive) | > 100 µM (inactive) | > 100 µM (inactive) | > 100 µM (inactive) | 30.8 µM (inactive) | – | > 61.4 µM (inactive) | > 100 µM (inactive) | > 100 µM (inactive)
O=C1NC2NC3NC(=O)NC3NC2N1 (configuration not stated) | > 100 µM (inactive) | > 100 µM (inactive) | > 100 µM (inactive) | > 100 µM (inactive) | – | > 100 µM (inactive) | 76.4 µM (inactive) | > 100 µM (inactive) | > 100 µM (inactive) | > 100 µM (inactive) | > 100 µM (inactive) | > 100 µM (inactive) | > 100 µM (inactive) | > 100 µM (inactive) | > 100 µM (inactive) | > 100 µM (inactive) | > 100 µM (inactive) | > 100 µM (inactive) | – | > 100 µM (inactive)
CN1C(=O)C2(C)SC1(c1ccccc1)C1C(=O)N(c3ccccc3)C(=O)C12 (configuration not stated) | > 100 µM (inactive) | 65.3 µM (inactive) | 48.5 µM (inactive) | > 100 µM (inactive) | 66.4 | 67.9 µM (inactive) | – | > 100 µM (inactive) | 91.8 µM (inactive) | 64.1 µM (inactive) | 43.4 µM (inactive) | > 100 µM (inactive) | 49.9 µM (inactive) | 26.4 µM (inactive) | > 100 µM (inactive) | 76 µM (inactive) | 70.8 µM (inactive) | 47.1 µM (inactive) | > 100 µM (inactive) | > 100 µM (inactive)
